Experiments:
Format in all cases: in vivo
[1] = test system: Cotton Aphid (Aphis gossypii); assay: Cotton aphid test, cotyledons dipped in test solution; conditions: 120 h, cotton plants, after 5 days, read-out: mortality in comparison with untreated controls
Procedure: (§1) Surfactant (Alkamuls EL 620) was added at the rate of 0.1% (vol/vol).
(§2) After the experiments were completed, in each case the lowest concentration was determined at which the compound still caused an 75 to 100% inhibition or mortality in comparison with untreated controls (limit or minimal concentration).
(§3) Cotton plants in the cotyledon stage (variety ‘Delta Pine’) are infested with approximately 100 laboratory-reared aphids by placing infested leaf sections on top of the test plants. The leaf sections are removed after 24 hr. The cotyledons of the intact plants are dipped into gradient solutions of the test compound. Aphid mortality on the treated plants, relative to mortality on check plants, is determined after 5 days.

Bean Aphid (Aphis fabae) = assay: Bean aphid test, nasturtium foliage and stem dipped; conditions: foliar, 72 h, nasturtium plants, after 3 days, read-out: mortality in comparison with untreated controls
Procedure: as §1, §2
Nasturtium plants in the 1st leaf-pair stage (variety ‘Mixed Jewel’) are infested with approximately 25 laboratory-reared aphids by placing infested cut plants on top of the test plants. The cut plants are removed after 24 hr. The foliage and stem of the test plants are dipped into gradient solutions of the test compound. Aphid mortality is determined after 3 days.

[2] = test system: Twospotted Spider Mite (Tetranychus urticae); assay: Twospotted spider mite test, lima bean foliage dipped; conditions: foliar, 120 h, lima bean plants, after 5 days, read-out: mortality in comparison with untreated controls
Procedure: as §1, §2
Lima bean plants in the 1st leaf-pair stage (variety ‘Henderson’) are infested with approximately 100 laboratory-reared mites per leaf by placing infested leaf sections on top of the test plants. The leaf sections are removed after 24 hr. The foliage of the intact plants is dipped into gradient solutions of the test compound. Mite mortality is determined after 5 days.

[3] = test system: Green Peach Aphid (Myzus persicae); assay: Green peach aphid test, pepper leaves dipped; conditions: 120 h, read-out: mortality in comparison with untreated controls
Procedure: as §1, §2
as §3, with “Pepper” for “Cotton”, “2nd leaf-pair” for “cotyledon”, “‘California Wonder’)” for “‘Delta Pine’)”, “40” for “100”, “leaves” for “cotyledons”

| SMILES | mortality at 300 ppm [1] [%] | mortality at 300 ppm (Bean Aphid (Aphis fabae)) [%] | mortality at 300 ppm [2] [%] | mortality at 300 ppm [3] [%] |
| --- | --- | --- | --- | --- |
| CCc1nc2ncnn2c(N[C@H]2CC[C@@H](C(C)(C)C)CC2)c1Cl [Example 1, (cis-4-tert-butyl-cyclohexyl)-[6-chloro-5-ethyl-[1,2,4]triazolo[1,5-a]pyrimidin-7-yl]-amine] | > 75 | > 75 | > 75 | 100 |
| Cc1nc2ncnn2c(N[C@@H](C)c2ccc(F)cc2)c1Cl [Example 114, (S)-(6-chloro-5-methyl-[1,2,4]triazolo[1,5-a]pyrimidin-7-yl)-[1-(4-fluorophenyl)-ethyl]-amine] | > 75 |  |  | 100 |

— patent publication US8664235B2, “6-Halogeno-[1,2,4]triazolo[1,5-a]pyrimidines for combating animal pests” (Merial Limited, priority 2003, dated 2014)
